For data set [1] the following is noted: cited from earlier work; for Ksp: silver salt, pure water at 25° C. (Table 1); for Ksp In pure H2O at 25° C. / Ksp in pure H2O at 25° C.: CRC Handbook of Chemistry and Physics; for Ksp In pure H2O at 25° C.: 74th edition (Table 4); for Ksp in pure H2O at 25° C.: 74th edition (Table 8).
A short description of data set [2]: Solubility-product constant (Ksp) and molar solubility of metal salts in pure water at 25° C. The conditions noted are these: derived from Ksp (Table 1).

This is an account of results in US20040150788A1, “Antimicrobial lenses, processes to prepare them and methods of their use” (priority 2002, published 2004).

`[Cl][Ag]` [AgCl, silver chloride]: the Ksp in data set [1] is given as 1.77 × 10^−10.
For the compound `[Ag][I]` [Agl, silver iodide], the Ksp in data set [1] is 8.51 × 10^−17. Besides, the “Molar solubility, silver” value in data set [2] was 9.22 nM.
With `[Br][Ag]` [Silver bromide], in data set [1], the “Ksp In pure H2O at 25° C.” value is 5.35 × 10^−13.
Regarding `O=S(=O)([O-])[O-].[Ag+].[Ag+]` [Silver sulfate], in data set [1], the “Ksp In pure H2O at 25° C.” value is 1.20 × 10^−5 and the Ksp is 1.20 × 10^−5.
As for `[O]=[Zn]` [Zinc oxide], the “Ksp in pure H2O at 25° C.” value in data set [1] is on record as 3.87 × 10^−10.
Consider Copper sulfide, for which the “Ksp in pure H2O at 25° C.” value in data set [1] is 6.00 × 10^−37.
